In patent publication US11866450B2, “Modulators of Cystic Fibrosis Transmembrane Conductance regulator, pharmaceutical compositions, methods of treatment, and process for making the modulators” (priority 2018, dated 2024):

Molecular target: CFTR-mediated chloride transport (Homo sapiens, UniProt P13569)
Type: cell-based
Conditions: enteroid cells incubated with test compound 18-24 hours, acute 10 μM forskolin and 300 nM Compound III; for Max. Activity: % of chloride transport with 3 μM Compound A, 3 μM Compound II and 300 nM acute Compound III triple combination control
Procedure, shortened: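 Human intestinal enteroid cells incubated with compound 18–24 h at 37° C., then membrane potential dye (FLIPR) read 15 min after chloride-free stimulation with 10 μM forskolin, 100 μM IBMX and 300 nM Compound III. AUC expressed as % of triple-combination control (3 μM Compound A, 3 μM Compound II, 300 nM Compound III).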

Sequence of CFTR-mediated chloride transport (P13569 whole entry, looked up): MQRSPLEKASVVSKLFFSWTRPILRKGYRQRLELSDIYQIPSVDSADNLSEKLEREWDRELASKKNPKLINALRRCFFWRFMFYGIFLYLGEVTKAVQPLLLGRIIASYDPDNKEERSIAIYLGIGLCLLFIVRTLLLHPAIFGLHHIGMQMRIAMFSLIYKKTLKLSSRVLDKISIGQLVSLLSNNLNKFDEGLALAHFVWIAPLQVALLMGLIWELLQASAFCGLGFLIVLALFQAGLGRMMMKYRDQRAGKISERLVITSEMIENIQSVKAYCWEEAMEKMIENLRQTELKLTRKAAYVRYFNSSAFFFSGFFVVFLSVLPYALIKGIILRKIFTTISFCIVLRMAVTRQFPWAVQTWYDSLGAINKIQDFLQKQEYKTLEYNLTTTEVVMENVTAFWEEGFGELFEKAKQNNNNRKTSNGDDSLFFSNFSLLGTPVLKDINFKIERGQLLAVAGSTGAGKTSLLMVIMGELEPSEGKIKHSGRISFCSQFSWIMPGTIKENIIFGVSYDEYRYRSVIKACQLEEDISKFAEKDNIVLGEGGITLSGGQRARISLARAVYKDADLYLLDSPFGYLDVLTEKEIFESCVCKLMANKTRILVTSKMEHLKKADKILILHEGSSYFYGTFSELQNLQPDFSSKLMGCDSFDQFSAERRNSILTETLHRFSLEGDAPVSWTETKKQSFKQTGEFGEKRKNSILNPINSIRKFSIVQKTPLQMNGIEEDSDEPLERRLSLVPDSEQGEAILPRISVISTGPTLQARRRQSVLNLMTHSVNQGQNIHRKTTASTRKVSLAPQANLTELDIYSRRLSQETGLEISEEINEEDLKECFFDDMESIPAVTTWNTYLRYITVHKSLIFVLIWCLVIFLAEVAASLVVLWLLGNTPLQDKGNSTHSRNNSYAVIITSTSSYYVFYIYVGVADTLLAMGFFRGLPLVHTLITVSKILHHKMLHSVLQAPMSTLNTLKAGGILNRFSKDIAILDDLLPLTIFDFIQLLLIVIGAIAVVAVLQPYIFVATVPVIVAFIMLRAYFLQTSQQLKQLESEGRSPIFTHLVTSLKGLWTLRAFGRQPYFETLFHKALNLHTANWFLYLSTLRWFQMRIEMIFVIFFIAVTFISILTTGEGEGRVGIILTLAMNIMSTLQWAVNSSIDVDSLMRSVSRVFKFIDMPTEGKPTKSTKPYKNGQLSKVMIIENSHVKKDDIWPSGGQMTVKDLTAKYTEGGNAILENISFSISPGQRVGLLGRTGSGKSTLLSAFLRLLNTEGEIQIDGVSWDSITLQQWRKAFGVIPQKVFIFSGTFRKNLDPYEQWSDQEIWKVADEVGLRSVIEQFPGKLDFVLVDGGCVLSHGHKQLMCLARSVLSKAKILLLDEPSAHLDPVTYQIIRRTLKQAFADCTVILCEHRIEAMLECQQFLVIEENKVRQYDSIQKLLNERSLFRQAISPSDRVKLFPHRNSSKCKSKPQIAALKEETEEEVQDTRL

With `CC1(C)C[C@H]2CCNc3cccc(n3)S(=O)(=O)NC(=O)c3ccc(-n4ccc(OCCCC5(C(F)(F)F)CC5)n4)nc3N1C2` (single isomer, unassigned) [Compound 234, 7,7-dimethyl-11-(3-{3-[1-(trifluoromethyl)cyclopropyl]propoxy}-1H-pyrazol-1-yl)-17λ^6-thia-2,8,10,16,22-pentaazatetracyclo[16.3.1.15,8.09,14]tricosa-1(22),9,11,13,18,20-hexaene-15,17,17-trione] the EC50 was less than 1000 nM and the “Max. Activity” value was “++ (++ is 30-60%)”.
In the case of `Cc1cc2nn1CCC[C@H]1CN(c3nc(-n4ccc(OCCC5(C(F)(F)F)CC5)n4)ccc3C(=O)NS2(=O)=O)C(C)(C)C1` (single isomer, unassigned) [Compound 150, 13,20,20-Trimethyl-4-(3-{2-[1-(trifluoromethyl)cyclopropyl]ethoxy}-1H-pyrazol-1-yl)-10λ^6-thia-1,3,9,14,22-pentaazatetracyclo[16.2.1.111,14.02,7]docosa-2,4,6,11(22),12-pentaene-8,10,10-trione], the EC50 is reported as 1000 to 3000 nM and the “Max. Activity” value is reported as “+ (+ is <30%)”.
For `CC1(C)C[C@@H]2CCCNc3cccc(n3)S(=O)(=O)NC(=O)c3ccc(N4CCN(CCC(C)(C)C(F)(F)F)C4=O)nc3N1C2` [Compound 223, (14S)-12,12-Dimethyl-8-[2-oxo-3-(4,4,4-trifluoro-3,3-dimethylbutyl)imidazolidin-1-yl]-2λ^6-thia-3,9,11,18,23-pentaazatetracyclo[17.3.1.111,14.05,10]tetracosa-1(22),5,7,9,19(23),20-hexaene-2,2,4-trione], the EC50 was less than 1000 nM and the “Max. Activity” value was “+++ (+++ is >60%)”.
`CC1(C)C[C@@H]2CCCNc3cccc(n3)S(=O)(=O)NC(=O)c3ccc(N4CC[C@H](OCCC56CC7CC(CC(C7)C5)C6)C4=O)nc3N1C2` (single isomer, unassigned) [Compound 240] was tested, and the EC50 was less than 1000 nM and the “Max. Activity” value was “++ (++ is 30-60%)”.
`CC1(C)C[C@@H]2CCCNc3ccc(O)c(n3)S(=O)(=O)NC(=O)c3ccc(-n4ccc(OCCCC5(C(F)(F)F)CC5)n4)nc3N1C2` [Compound 261, (14S)-22-hydroxy-12,12-dimethyl-8-(3-{3-[1-(trifluoromethyl)cyclopropyl]propoxy}-1H-pyrazol-1-yl)-2λ^6-thia-3,9,11,18,23-pentaazatetracyclo[17.3.1.111,14.05,10]tetracosa-1(22),5,7,9,19(23),20-hexaene-2,2,4-trione] was tested, and the EC50 was less than 1000 nM and the “Max. Activity” value was “++ (++ is 30-60%)”.
For `CC(C)(C)CCC1C(=O)N(c2ccc3c(n2)N2C[C@@H](CCCNc4cccc(n4)S(=O)(=O)NC3=O)CC2(C)C)CC1(C)C` (stereo partly drawn) [Compound 98, (14S)-8-[3-(3,3-Dimethylbutyl)-4,4-dimethyl-2-oxopyrrolidin-1-yl]-12,12-dimethyl-2λ^6-thia-3,9,11,18,23-pentaazatetracyclo[17.3.1.111,14.05,10]tetracosa-1(22),5,7,9,19(23),20-hexaene-2,2,4-trione], the EC50 was less than 1000 nM and the “Max. Activity” value was “++ (++ is 30-60%)”.
With `CC1(C)C[C@H]2CCCn3ccc(n3)S(=O)(=O)NC(=O)c3ccc(N4CCC(OCCC5(C(F)(F)F)CC5)C4=O)nc3N1C2` (stereo in doubt) [Compound 183, 20,20-Dimethyl-4-(2-oxo-3-{2-[1-(trifluoromethyl)cyclopropyl]ethoxy}pyrrolidin-1-yl)-10λ^6-thia-1,3,9,14,22-pentaazatetracyclo[16.2.1.111,14.02,7]docosa-2,4,6,11(22),12-pentaene-8,10,10-trione] the EC50 was less than 1000 nM and the “Max. Activity” value was “++ (++ is 30-60%)”.
In the case of `CC1(C)C[C@H]2CCCCNc3ccc(cn3)S(=O)(=O)NC(=O)c3ccc(-n4ccc(OCC5C6(CC6)C56CC6)n4)nc3N1C2` (single isomer, unassigned) [Compound 120, 8-[3-({dispiro[2.0.2.1]heptan-7-yl}methoxy)-1H-pyrazol-1-yl]-12,12-dimethyl-2λ^6-thia-3,9,11,19,21-pentaazatetracyclo[18.2.2.111,14.05,10]pentacosa-1(23),5,7,9,20(24),21-hexaene-2,2,4-trione], the EC50 is reported as less than 1000 nM and the “Max. Activity” value is reported as “++ (++ is 30-60%)”.
